The values that follow come from patent US20030229105A1, “Treatment of autoimmune disorders” (Cyclacel Limited, priority 2002, published 2003).

The test system of one test is CEM (uninfected) cells. Nature of the test: Cell cycle analysis (PI staining, FACS) of uninfected CEM cells. In kind it is cell-based. The settings on record: TNF-α, 10 μM, 48 h; for effect on cell cycle progression: uninfected CEM. The source says:
We next examined the cellular effects of these drugs on the cell cycle progression of HIV-1-infected and uninfected cells. […]. […] Therefore, the selective killing mechanism by this particular drug might partially be responsible for the decrease in HIV-1 titers observed in the infected cells. We also reasoned that Purvalanol A may be toxic to uninfected induced cells by increasing the G2/M population and the increase of apoptosis, as is evident in FIG. 2A. […] U937 is the uninfected monocytic parental cell line, and U1 is the U937 cell line infected with two copies of integrated HIV-1, only one of which is wild type for viral progeny formation. […]. This is in contrast to many apoptosis-inducing agents, such as TNF-α DNA-damaging agents (gamma irradiation, mitomycin C [6]), or sodium butyrate, in which cases the apoptosis of HIV-1-infected cell accompanies massive production and the release of infectious HIV-1 virions.
Forty-eight hours later, cells were collected, fixed with 70% ethanol, PI stained, and analyzed by FACS. (B and C) Experiments similar to the experiment in panel A were performed in ACH2 (B) or U1 (C) cells (both latently HIV-1 infected) plus TNF-α, followed by ethanol fixation, PI staining, and analysis by FACS. Apoptosis (Apop) represents a mixture of cells from either G1, S, or G2/M with characteristics of cell death.
For fluorescence-activated cell sorting (FACS) analysis, cells were stained with a cocktail of propidium iodide (PI) buffer (PBS with Ca^2+ and Mg^2+, RNase A [10 μg/ml], NP-40 [0.1%], and PI [50 μg/ml]) followed by cell-sorting analysis. FACS data acquired were analyzed by ModFit LT software (Verity Software House, Inc.).

Test [1] deals with HIV-1 NSI (THA/92/001, subtype E envelope). As to the kind of experiment: p24 gag ELISA of PHA-activated PBMC infected with NSI field isolate. In kind it is cell-based. The settings on record: 10 μM drug postinfection. As to the method:
We chose HIV-1 stably integrated cells, lymphocytic ACH2 and 8E5 cell lines, as well as monocytic U1 cells (and their uninfected parental counterparts CEM and U937, respectively) for our initial studies, since viral transcription could be activated and scored through signals, such as Tat, TNF-α or phorbol myristate acetate (PMA) and PHA. We first activated viruses in these cells with TNF-α (10 ng/ml) at 37° C. for 2 h, followed by washing, and then we incubated cells with 10 μM concentrations of each drug. […]. A somewhat similar pattern of drug inhibition was also seen when ACH2, 8E5, and U1 cells were treated with either Tat or a combination of PMA and PHA to induce full-length viral transcripts. […]. […] We next examined the effect of all three drugs on primary HIV-1 field isolates of SI and NSI strains. Activated PBMC were infected with two independent HIV-1 viral strains of SI (UG/92/029, subtype A envelope) and NSI (THA/92/001, subtype E envelope). […].
Five days later, the supernatants were collected, and the amount of newly synthesized HIV-1 was measured by p24 antigen assay. […]
Media from HIV-1 infected cell lines were centrifuged to pellet the cells, and supernatants were collected and diluted to 1:100 to 1:1,000 in RPMI 1640 prior to ELISA. […] The p24 gag antigen level was analyzed by using the HIVAG-1 Monoclonal Antibody Kit (Abbott Laboratories, Diagnostics Division). […]
Background: ELISA stands for enzyme-linked immunosorbent assay.

Another test has as its target cdk4 (Homo sapiens, UniProt P11802). The note with it: cited from earlier work.
In the next test the test system is HIV-1 LTR. As to the kind of experiment: HIV-1 LTR-CAT reporter, basal transcription in CEM cells. In kind it is cell-based. The note with it: ca. 10 μM, 20 h. The source says: We next sought to determine whether the inhibition of HIV-1 transcription, observed above, could be mediated specifically by cdk inhibitors or by general cell cycle inhibitors. To distinguish between the two possibilities, we performed transfection experiments with all three cdk inhibitors tested above and two other well-established cell cycle inhibitors, namely, hydroxyurea and nocodazole. Hydroxyurea blocks DNA replication by inhibiting ribonucleotide reductase and thus arrests cell cycle progression at the G1/S checkpoint, while nocodazole blocks at G2/M by promoting tubulin depolymerization. […] Therefore, the basal transcription of HIV-1 was inhibited by purine analogs and not general cell cycle inhibitors.
FIG. 3 discloses inhibition of HIV-1 basal and activated transcription by cdk inhibitors. […] The graphs at the bottom of the figure represent the effect of various concentrations of general cell cycle inhibitors (hydroxyurea and nocodazole) on CEM cells. (B) Inhibition of activated transcription in CEM cells was examined using transfected HIV-1 LTR-CAT, together with pcTat plasmid. (C) Experiment similar experiment to that in panel B, except that pcTat plasmid was replaced with E. coli-expressed and purified Tat protein
Lymphocyte CEM (12D7) cells were grown to mid-log phase and were processed for protein electroporation according to a previously published procedure (24). […]

Chain of cdk4 (P11802 whole entry, species assumed): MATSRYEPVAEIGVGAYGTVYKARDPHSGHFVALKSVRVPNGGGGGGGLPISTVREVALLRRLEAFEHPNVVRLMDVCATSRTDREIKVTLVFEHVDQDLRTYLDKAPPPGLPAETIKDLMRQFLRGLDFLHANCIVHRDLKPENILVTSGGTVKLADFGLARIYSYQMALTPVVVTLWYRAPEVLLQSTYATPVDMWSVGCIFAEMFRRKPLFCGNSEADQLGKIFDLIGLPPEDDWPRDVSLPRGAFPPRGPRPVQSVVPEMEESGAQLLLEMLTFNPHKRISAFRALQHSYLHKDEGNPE
Chain of cdk4 (P24385 whole entry partner, species assumed): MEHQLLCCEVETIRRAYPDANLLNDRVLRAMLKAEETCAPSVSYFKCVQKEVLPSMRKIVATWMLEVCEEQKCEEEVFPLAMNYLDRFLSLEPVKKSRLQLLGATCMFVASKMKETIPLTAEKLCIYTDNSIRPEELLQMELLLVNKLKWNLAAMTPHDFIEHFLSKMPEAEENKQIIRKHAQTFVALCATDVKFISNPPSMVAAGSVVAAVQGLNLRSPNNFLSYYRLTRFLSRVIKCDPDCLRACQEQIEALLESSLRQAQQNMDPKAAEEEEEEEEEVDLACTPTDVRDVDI

Take Roscovitine: the apoptosis with CEM (uninfected) cells (CEM cells) came out at 4.9%. For the same compound, the “effect on cell cycle progression” value in the test on CEM (uninfected) cells was “did not change the cell cycle progression significantly”. Moreover, in test [1], the “block of viral replication (p24 gag), NSI strain” value is reported as “effectively blocked viral replication”. In addition, the “reported inhibition of cdk4” value at cdk4 is “not cdk4 or -6”. The “inhibition of HIV-1 basal transcription (CAT activity)” value in the test on HIV-1 LTR is reported as “dramatic inhibition”.

Take `CC(C)[C@H](CO)Nc1nc(Nc2cccc(Cl)c2)c2ncn(C(C)C)c2n1` [Purvalanol A]: the “effect on cell cycle progression” value in the test with CEM (uninfected) cells is “showed an increase in the G2/M population and induced apoptosis”. Also, the “block of viral replication (p24 gag), NSI strain” value in test [1] is “effectively blocked viral replication”. The “inhibition of HIV-1 basal transcription (CAT activity)” value with HIV-1 LTR is given as “dramatic inhibition”.
